These results are taken from article PMC6834145, “Identification of a Novel Oligosaccharide in Maple Syrup as a Potential Alternative Saccharide for Diabetes Mellitus Patients” (International Journal of Molecular Sciences, 2019).

Each structure is given as a SMILES string.

Assay [1] deals with T1, Invertase from Candida utilis (Williopsis jadinii, UniProt O94224).
T1 construct: gene INV1; commercial native enzyme, Seikagaku Biobusiness Corporation
T1 sequence (O94224 1-533): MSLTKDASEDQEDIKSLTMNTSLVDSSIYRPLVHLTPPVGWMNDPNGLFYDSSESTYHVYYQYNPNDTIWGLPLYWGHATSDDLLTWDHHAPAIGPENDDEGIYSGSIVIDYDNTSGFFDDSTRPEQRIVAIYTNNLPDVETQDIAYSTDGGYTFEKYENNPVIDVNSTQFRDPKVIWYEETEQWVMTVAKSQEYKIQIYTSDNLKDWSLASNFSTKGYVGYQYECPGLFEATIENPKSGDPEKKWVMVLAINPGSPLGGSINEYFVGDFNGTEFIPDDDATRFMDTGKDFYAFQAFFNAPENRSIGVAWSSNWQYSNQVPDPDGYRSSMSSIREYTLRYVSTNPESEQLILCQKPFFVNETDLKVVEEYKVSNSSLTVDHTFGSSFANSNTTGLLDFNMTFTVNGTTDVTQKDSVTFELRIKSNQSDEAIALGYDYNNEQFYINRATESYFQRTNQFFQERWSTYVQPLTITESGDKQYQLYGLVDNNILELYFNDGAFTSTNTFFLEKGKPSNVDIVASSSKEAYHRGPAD
As to the kind of experiment: glucose release from sucrose, capillary electrophoresis of PMP derivatives. The assay is classed as biochemical. Particulars: substrate sucrose (100 µg), acetate buffer pH 4.5, 15 min. An excerpt:
glucose release from sucrose, capillary electrophoresis of PMP derivatives on Invertase from Candida utilis

Assay [2] concerns the target T2, maltase (α-(1-4) glucosidase) from Saccharomyces.
T2 construct: gene MAL12; commercial enzyme, Sigma-Aldrich Japan
As to the kind of experiment: glucose release from maltose, capillary electrophoresis of PMP derivatives. The assay is classed as biochemical. Particulars: substrate maltose; citric buffer pH 6.8 or acetate buffer pH 4.5 (text does not assign clearly), 15 min. The text has this: glucose release from maltose, capillary electrophoresis of PMP derivatives on maltase (α-(1-4) glucosidase) from Saccharomyces

Turning to `OC[C@H]1OC(O)[C@H](O)[C@@H](O)[C@@H]1OC[C@H]1OC(O)(CO)[C@@H](O)[C@@H]1O` (some centres unmarked) [maplebiose1], the 50% inhibitory concentration (IC50) in assay [1] was found to be 1170 µM; in assay [2], 1720 µM.

The IC50 is the concentration that gives 50% inhibition.
